Assay results: patent US20240415845A1, “Compositions of Iboga Alkaloids and Methods of Treatment” (priority 2022, published 2024)

Tested on: special operations veterans with combat and/or blast exposure
Test: World Health Organization Disability Assessment Schedule 2.0 (WHODAS 2.0)
Format: in vivo, human
Settings: for WHODAS 2.0 Total, effect size D (Cohen's D) / WHODAS 2.0 Total score: all participants; for WHODAS 2.0 Total score: baseline 30.2 ± 14.7, mean ± SD; for WHODAS 2.0 Self Care subscale: baseline 5.2% ± 9.2%; for WHODAS 2.0 Mobility subscale: baseline 14.7% ± 15.7%; for WHODAS 2.0 Interpersonal subscale: baseline 32.3% ± 20.4; for WHODAS 2.0 Community Participation subscale: baseline 35.6% ± 21.1%; for WHODAS 2.0 Cognition subscale: baseline 36.1% ± 14.6%; for WHODAS 2.0 Life Activities subscale: baseline 41.1% ± 24.8%
Text: The pre-specified primary outcome was change in the World Health Organization Disability Assessment Schedule 2.0 (WHODAS) (Gold L. H. et al., J. Am. Acad. Psychiatry Law 42, 9 (2014)) from baseline to post-treatment, with change from baseline to the one-month follow-up a secondary outcome. Additional pre-specified secondary outcomes included post-treatment changes on the Clinician Administered PTSD Scale (CAPS-5; Weathers, F. W. et al., Psychol. Assess., 30, 383-395 (2018)), Montgomery-Åsberg Depression Rating Scale (MADRS; Montgomery, S. A., Br. J. Psychiatry J. Ment. Sci., 134, 382-389 (1979)) and the Hamilton-Anxiety Rating Scale (HAM-A; Bruss, G. S., et al., Psychiatry Res., 53, 191-202 (1994)). […] An additional dose of magnesium was administered approximately 12 hours later. To assess the significance of post-treatment changes, linear mixed effects (LME) models were used for each outcome measure. False Discovery Rate (FDR; Benjamini, Y. et al., J. R. Stat. Soc. Ser. B Methodol., 57, 289-300 (1995)) was applied to correct for multiple comparisons.
With subjects in the fasting state, an intravenous infusion of 1 gram of magnesium sulfate was administered 1-2 hours prior to treatment. […] Medical staff (MD, RN, or EMT) were onsite at a ratio of at least 1 staff per 2 patients throughout treatment for monitoring and management, but no specific coaching or psychological support was provided during treatment.
Post treatment, each subject was assessed four days after treatment, one month after treatment, and, if willing, one year after treatment. The post-treatment assessments conducted at four days and at one month after treatment included neuropsychological testing, measures of PTSD, depression, anxiety, mystical experiences, functional imaging and EEG. Post-treatment assessments conducted at one year after treatment included PTSD, depression, and anxiety measures.
World Health Organization Disability Assessment Scale 2.0 (WHODAS 2.0) was used as a measure of function. WHODAS was used to assess the impact of health conditions across six life domains (cognition, mobility, self-care, interpersonal, life activities, and community participation) and it is sensitive to change over time (Gold, L. H., J. Am. Acad. Psychiatry Law 42, 9 (2014). Each item in the assessment is rated on a scale ranging from no problems to extreme problems (Üstün, T. B. et al., Measuring health and disability: Manual for WHO disability assessment schedule WHODAS 2.0. (World Health Organization, 2010)). To capture inter-individual variability in disability the WHODAS complex scoring method was used. Raw scores were converted to a metric ranging from 0(no disability) to 100 (full disability), by calculating the ratio of the participant's score relative to the maximum possible score in each domain as well as to the total score (Id.). A score of 20%-39% was considered mild, 40%-59% was moderate, 60%-79% was moderate-severe and 80%-100% was severe. Scores from baseline were compared to scores from one-month post treatment.
A measure of disability for health and disability on life functions is the World Health Organization Disability Assessment Schedule 2.0 (WHODAS). The items are designed to be sensitive to change due to a treatment, and the measure assesses disability over the past 30 days. The items measured are cognition, self-care, mobility, getting along. life activity, and participation in society. The WHODAS measure gives a rating of 1 for no disability, 2 for mild disability and 3 for moderate disability. FIG. 7A is a graph showing results from the World Health Organization Disability Assessment Scale 2.0 (WHODAS 2.0) assessment for each subject at baseline (prior to treatment), about one week after treatment, and one month after treatment. The dashed line represents the means of the individual scores. FIG. 7B is a bar graph of self-reported disability using the WHODAS total scores at baseline and one-month after treatment.

Question: How did the “WHODAS 2.0 Cognition subscale, effect size D” value (baseline vs one-month) turn out when `CCC1CC2CC3c4[nH]c5ccc(OC)cc5c4CCN(C2)C13` (centres unmarked) [ibogaine, Ibogaine] was run?
Answer: Its value is 2.38.

Question: And the “WHODAS 2.0 Community Participation subscale, effect size D” value (baseline vs one-month)?
Answer: The value was 1.78.

Question: What about the “WHODAS 2.0 Interpersonal subscale, effect size D” value (baseline vs one-month) of the same compound?
Answer: Its value is 1.63.

Question: What about the “WHODAS 2.0 Life Activities subscale, effect size D” value (baseline vs one-month) of the same compound?
Answer: The value was 1.44.

Question: And the “WHODAS 2.0 Mobility subscale, effect size D” value (baseline vs one-month)?
Answer: Its value is 0.83.

Question: And the “WHODAS 2.0 Self Care subscale, effect size D” value (baseline vs one-month)?
Answer: Its value is 0.51.

Question: And the “WHODAS 2.0 Total, effect size D (Cohen's D)” value (baseline vs one-month post)?
Answer: The value was 2.20.

Question: What about the “WHODAS 2.0 Total, effect size D (Cohen's D)” value (baseline vs one-week post) of the same compound?
Answer: The value was 0.74.

Question: What about the “WHODAS 2.0 Cognition subscale, effect size D” value (baseline vs post-treatment) of the same compound?
Answer: Its value is 0.96.

Question: What about the “WHODAS 2.0 Community Participation subscale, effect size D” value (baseline vs post-treatment) of the same compound?
Answer: Its value is 0.53.

Question: And the “WHODAS 2.0 Interpersonal subscale, effect size D” value (baseline vs post-treatment)?
Answer: Its value is 0.60.

Question: And the “WHODAS 2.0 Life Activities subscale, effect size D” value (baseline vs post-treatment)?
Answer: The value was 0.48.

Question: And the “WHODAS 2.0 Mobility subscale, effect size D” value (baseline vs post-treatment)?
Answer: Its value is 0.53.

Question: And the “WHODAS 2.0 Self Care subscale, effect size D” value (baseline vs post-treatment)?
Answer: The value was 0.37.

Question: And the “self-reported disability WHODAS total score (rating 1 no, 2 mild, 3 moderate disability)” value (one-month post treatment, baseline about 2.5 (FIG. 7B))?
Answer: The value was “over 1”.

Question: What about the “WHODAS 2.0 Total score” value (one-month post) of the same compound?
Answer: The value was 5.1.

Question: And the “WHODAS 2.0 Self Care subscale” value (one-month)?
Answer: Its value is 1.0% ±.

Question: What about the “WHODAS 2.0 Mobility subscale” value (one-month) of the same compound?
Answer: The value was 1.3% ±.

Question: And the “WHODAS 2.0 Interpersonal subscale” value (one-month)?
Answer: The value was 4.8% ±.

Question: What about the “WHODAS 2.0 Community Participation subscale” value (one-month) of the same compound?
Answer: The value was 5.9% ±.

Question: What about the “WHODAS 2.0 Cognition subscale” value (one-month) of the same compound?
Answer: Its value is 5.0% ±.

Question: What about the “WHODAS 2.0 Life Activities subscale” value (one-month) of the same compound?
Answer: Its value is 9.1% ±.

Question: What about the “WHODAS 2.0 Total score” value (one-week post) of the same compound?
Answer: Its value is 19.9.

Question: What about the “WHODAS 2.0 Self Care subscale” value (post-treatment) of the same compound?
Answer: Its value is 1.9% ±.

Question: And the “WHODAS 2.0 Mobility subscale” value (post-treatment)?
Answer: Its value is 7.2% ±.

Question: What about the “WHODAS 2.0 Interpersonal subscale” value (post-treatment) of the same compound?
Answer: Its value is 21.7% ±.

Question: What about the “WHODAS 2.0 Community Participation subscale” value (post-treatment) of the same compound?
Answer: Its value is 24.7% ±.

Question: And the “WHODAS 2.0 Cognition subscale” value (post-treatment)?
Answer: The value was 19.2% ±.

Question: And the “WHODAS 2.0 Life Activities subscale” value (post-treatment)?
Answer: The value was 31.6% ±.
